# Test system: HCT-116
# Assay: Cytotoxicity against HCT116 cells
# Format: functional, cell-based
# Settings: Homo sapiens
row,SMILES,IC50
1,C[C@H]1C=C(C[C@H](O)CCCCCCCCCC[C@@H](O)[C@H]2CC[C@H]([C@H]3CC[C@H]([C@H](O)CCCCCCO)O3)O2)C(=O)O1,3.8 nM
2,C[C@H]1C=C(C[C@H](O)CCCCCCCCCC[C@@H](O)[C@H]2CC[C@H]([C@H]3CC[C@H]([C@H](O)CCCCCCCCCCCO)O3)O2)C(=O)O1,0.6 nM
3,CCCCCCCC[C@@H](O)[C@H]1CC[C@H]([C@H]2CC[C@H]([C@H](O)CCCCCCCCCC[C@@H](O)CC3=C[C@H](C)OC3=O)O2)O1,0.5 nM
4,C[C@H]1C=C(CCCCCCCCCCC[C@@H](O)[C@H]2CC[C@H]([C@H]3CC[C@H]([C@H](O)CCCCCCCCCCCO)O3)O2)C(=O)O1,35 nM
5,COCOCCCCCC[C@@H](O)[C@H]1CC[C@H]([C@H]2CC[C@H]([C@H](O)CCCCCCCCCC[C@@H](O)CC3=C[C@H](C)OC3=O)O2)O1,16 nM
6,CCCCCCCCCCC(O)C1CCC(C2CCC(C(O)CCCCCCCC[C@H](O)CC3=C[C@@H](C)OC3=O)O2)O1 (stereo partly specified) [ASIMICIN],8.8 nM

# Reference: ChEMBL document CHEMBL1147860, “ABC synthesis and antitumor activity of a series of Annonaceous acetogenin analogs with a threo, trans, threo, trans, threo-bis-tetrahydrofuran core unit” (Bioorg Med Chem Lett, 2007)
